Values of other authors, collected in paper PMC5760531, “Action Potential Recording and Pro-arrhythmia Risk Analysis in Human Ventricular Trabeculae” (Frontiers in Physiology, 2018).

Tests used:
[1] = cited from earlier work
hERG = settings: read-out: IC50 for hERG; previous experiments; ref Qu and Vargas, 2015; cited from earlier work

In the case of `Nc1nnc(-c2cccc(Cl)c2Cl)c(N)n1` [LAMOTRIGINE, Lamotrigine], the “Free ETPC” value ([1]; human free (unbound) effective therapeutic plasma concentration used to calculate multiples) is given as 17 µM, the free therapeutic exposure ([1]; human, ref Dixon et al., 2008) is given as “approximately 17 μM” and the IC50 (hERG) is given as 110 µM.
